*1 amine or outer side, *2 acyl side, *3 side chain or, on linkers, in order; H or OH if unused. Where a SMILES comes first, the peptide text is derived from it. Bridges are numbered along the chain shown (N, C = ends). [ ]: non-standard residue; d: D form. The star is where a group is joined. hPhe(3-Cl-4-CF3) = N[C@@H](CCc1ccc(C(F)(F)F)c(Cl)c1)C(=O)O; NPrPhe(4-CF3) = CCCN[C@@H](Cc1ccc(C(F)(F)F)cc1)C(=O)O; Pro(4-spirocPr) = O=C(O)[C@@H]1CC2(CC2)CN1; X38 = C[C@@H]1CN([*:1])[C@@H]1C(=O)[*:2]; Morpholine(3S-CO) = O=C(O)[C@@H]1COCCN1; Pip(4,4-F2) = O=C(O)[C@@H]1CC(F)(F)CCN1; NMeGly(cPent) = CN[C@H](C(=O)O)C1CCCC1; X46 = CC1(C)CN([*:1])[C@@H]1C(=O)[*:2]; Aze(3S-Me) = C[C@H]1CN[C@@H]1C(=O)O; Hyp = O=C(O)[C@@H]1C[C@@H](O)CN1; NMeD = CN[C@@H](CC(=O)O)C(=O)O; NMeL = CN[C@@H](CC(C)C)C(=O)O; Pip = O=C(O)[C@@H]1CCCCN1; Morpholide = C1CN(*)CCO1; Ac5c = NC1(C(=O)O)CCCC1; Aze = O=C(O)[C@@H]1CCN1; NPrGly = CCCNCC(=O)O; NEtG = CCNCC(=O)O; Sar = CNCC(=O)O
Experiments:
[1] = target: GDP-bound HRAS wild-type protein (Homo sapiens, UniProt P01112); experiment: Binding to HRAS by surface plasmon resonance (SPR), Single Cycle Kinetics; conditions: KD ratio HRAS/KRAS, SPR
[2] = target: GDP-bound NRAS wild-type protein (Homo sapiens, UniProt P01111); experiment: Binding to NRAS by surface plasmon resonance (SPR), Single Cycle Kinetics; conditions: KD ratio NRAS/KRAS, SPR
GDP-bound NRAS wild-type protein, sequence (P01111 whole entry): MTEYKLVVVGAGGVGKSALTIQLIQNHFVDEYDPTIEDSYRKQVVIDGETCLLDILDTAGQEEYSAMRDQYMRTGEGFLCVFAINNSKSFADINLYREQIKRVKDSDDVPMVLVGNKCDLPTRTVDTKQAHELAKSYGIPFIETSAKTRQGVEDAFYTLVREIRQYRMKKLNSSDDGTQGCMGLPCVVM

GDP-bound HRAS wild-type protein, sequence (P01112 whole entry): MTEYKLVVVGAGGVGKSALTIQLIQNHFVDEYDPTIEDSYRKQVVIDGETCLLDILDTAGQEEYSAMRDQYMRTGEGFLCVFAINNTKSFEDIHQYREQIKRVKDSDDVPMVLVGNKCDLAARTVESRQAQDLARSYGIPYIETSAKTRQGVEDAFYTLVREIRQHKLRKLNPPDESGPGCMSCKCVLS

| Structure (SMILES) | HRAS/KRAS (ratio of KD for GDP-bound HRAS wild-type to KD for KRAS) [1] | NRAS/KRAS (ratio of KD for GDP-bound NRAS wild-type to KD for KRAS) [2] |
| --- | --- | --- |
| CCCN1C(=O)CN(C)C(=O)[C@H]2N(CC2(C)C)C(=O)[C@H]([C@@H](C)CC)NC(=O)[C@H](CC(C)C)N(C)C(=O)C[C@@H](C(=O)N2CCOCC2)N(C)C(=O)[C@H](C2CCCC2)N(C)C(=O)C2(CCCC2)NC(=O)[C@@H]2CCCN2C(=O)[C@H](CCc2ccc(C(F)(F)F)c(Cl)c2)NC(=O)CN(C)C(=O)[C@@H]1Cc1ccc(C(F)(F)F)cc1 [PP0256] ([NMeL]I[X46][Sar][NPrPhe(4-CF3)][Sar][hPhe(3-Cl-4-CF3)]P[Ac5c][NMeGly(cPent)][NMeD]-Morpholide; lactam N-11) | C (A compound having a KD ratio of 0.1 or more and less than 3 is denoted as C) | B (a compound having 3 or more and less than 10 is denoted as B) |
| CCCN1C(=O)CN(C)C(=O)[C@@H]2[C@H](C)CN2C(=O)[C@H]([C@@H](C)CC)NC(=O)[C@H](CC(C)C)N(C)C(=O)C[C@@H](C(=O)N2CCOCC2)N(C)C(=O)[C@H](C2CCCC2)N(C)C(=O)C2(CCCC2)NC(=O)[C@@H]2CCCN2C(=O)[C@H](CCc2ccc(C(F)(F)F)c(Cl)c2)NC(=O)CN(C)C(=O)[C@@H]1Cc1ccc(C(F)(F)F)cc1 [PP0257] ([NMeL]I[X38][Sar][NPrPhe(4-CF3)][Sar][hPhe(3-Cl-4-CF3)]P[Ac5c][NMeGly(cPent)][NMeD]-Morpholide; lactam N-11) | B (a compound having 3 or more and less than 10 is denoted as B) | B (a compound having 3 or more and less than 10 is denoted as B) |
| CCCN1C(=O)CN(C)C(=O)[C@@H]2[C@@H](C)CN2C(=O)[C@H]([C@@H](C)CC)NC(=O)[C@H](CC(C)C)N(C)C(=O)C[C@@H](C(=O)N2CCOCC2)N(C)C(=O)[C@H](C2CCCC2)N(C)C(=O)C2(CCCC2)NC(=O)[C@@H]2CCCN2C(=O)[C@H](CCc2ccc(C(F)(F)F)c(Cl)c2)NC(=O)CN(C)C(=O)[C@@H]1Cc1ccc(C(F)(F)F)cc1 [PP0258] ([NMeL]I[Aze(3S-Me)][Sar][NPrPhe(4-CF3)][Sar][hPhe(3-Cl-4-CF3)]P[Ac5c][NMeGly(cPent)][NMeD]-Morpholide; lactam N-11) | C (A compound having a KD ratio of 0.1 or more and less than 3 is denoted as C) | B (a compound having 3 or more and less than 10 is denoted as B) |
| CCCN1C(=O)[C@@H]2CCN2C(=O)CN(CC)C(=O)[C@H]([C@@H](C)CC)NC(=O)[C@H](CC(C)C)N(C)C(=O)C[C@@H](C(=O)N2CCOCC2)N(C)C(=O)[C@H](C2CCCC2)N(C)C(=O)C2(CCCC2)NC(=O)[C@@H]2CCCN2C(=O)[C@H](CCc2ccc(C(F)(F)F)c(Cl)c2)NC(=O)CN(C)C(=O)[C@@H]1Cc1ccc(C(F)(F)F)cc1 [PP0259] ([NMeL]I[NEtG][Aze][NPrPhe(4-CF3)][Sar][hPhe(3-Cl-4-CF3)]P[Ac5c][NMeGly(cPent)][NMeD]-Morpholide; lactam N-11) | B (a compound having 3 or more and less than 10 is denoted as B) | C (A compound having a KD ratio of 0.1 or more and less than 3 is denoted as C) |
| CCCN1C(=O)CN(C)C(=O)CN(C)C(=O)[C@H]([C@@H](C)CC)NC(=O)[C@H](CC(C)C)N(C)C(=O)C[C@@H](C(=O)N2CCOCC2)N(C)C(=O)[C@H](C2CCCC2)N(C)C(=O)C2(CCCC2)NC(=O)[C@@H]2CCN2C(=O)[C@H](CCc2ccc(C(F)(F)F)c(Cl)c2)NC(=O)CN(C)C(=O)[C@@H]1Cc1ccc(C(F)(F)F)cc1 [PP0260] ([NMeL]I[Sar][Sar][NPrPhe(4-CF3)][Sar][hPhe(3-Cl-4-CF3)][Aze][Ac5c][NMeGly(cPent)][NMeD]-Morpholide; lactam N-11) | C (A compound having a KD ratio of 0.1 or more and less than 3 is denoted as C) | B (a compound having 3 or more and less than 10 is denoted as B) |
| CCCN1C(=O)CN(C)C(=O)CN(C)C(=O)[C@H]([C@@H](C)CC)NC(=O)[C@H](CC(C)C)N(C)C(=O)C[C@@H](C(=O)N2CCOCC2)N(C)C(=O)[C@H](C2CCCC2)N(C)C(=O)C2(CCCC2)NC(=O)[C@@H]2CC3(CC3)CN2C(=O)[C@H](CCc2ccc(C(F)(F)F)c(Cl)c2)NC(=O)CN(C)C(=O)[C@@H]1Cc1ccc(C(F)(F)F)cc1 [PP0261] ([NMeL]I[Sar][Sar][NPrPhe(4-CF3)][Sar][hPhe(3-Cl-4-CF3)][Pro(4-spirocPr)][Ac5c][NMeGly(cPent)][NMeD]-Morpholide; lactam N-11) | C (A compound having a KD ratio of 0.1 or more and less than 3 is denoted as C) | B (a compound having 3 or more and less than 10 is denoted as B) |
| CCCN1C(=O)CN(C)C(=O)CN(C)C(=O)[C@H]([C@@H](C)CC)NC(=O)[C@H](CC(C)C)N(C)C(=O)C[C@@H](C(=O)N2CCOCC2)N(C)C(=O)[C@H](C2CCCC2)N(C)C(=O)C2(CCCC2)NC(=O)[C@@H]2C[C@@H](OC)CN2C(=O)[C@H](CCc2ccc(C(F)(F)F)c(Cl)c2)NC(=O)CN(C)C(=O)[C@@H]1Cc1ccc(C(F)(F)F)cc1 [PP0262] ([NMeL]I[Sar][Sar][NPrPhe(4-CF3)][Sar][hPhe(3-Cl-4-CF3)][Hyp](Me)[Ac5c][NMeGly(cPent)][NMeD]-Morpholide; lactam N-11) | B (a compound having 3 or more and less than 10 is denoted as B) | B (a compound having 3 or more and less than 10 is denoted as B) |
| CCCN1C(=O)CN(C)C(=O)CN(C)C(=O)[C@H]([C@@H](C)CC)NC(=O)[C@H](CC(C)C)N(C)C(=O)C[C@@H](C(=O)N2CCOCC2)N(C)C(=O)[C@H](C2CCCC2)N(C)C(=O)C2(CCCC2)NC(=O)[C@@H]2CCCCN2C(=O)[C@H](CCc2ccc(C(F)(F)F)c(Cl)c2)NC(=O)CN(C)C(=O)[C@@H]1Cc1ccc(C(F)(F)F)cc1 [PP0263] ([NMeL]I[Sar][Sar][NPrPhe(4-CF3)][Sar][hPhe(3-Cl-4-CF3)][Pip][Ac5c][NMeGly(cPent)][NMeD]-Morpholide; lactam N-11) | C (A compound having a KD ratio of 0.1 or more and less than 3 is denoted as C) | B (a compound having 3 or more and less than 10 is denoted as B) |
| CCCN1C(=O)CN(C)C(=O)CN(C)C(=O)[C@H]([C@@H](C)CC)NC(=O)[C@H](CC(C)C)N(C)C(=O)C[C@@H](C(=O)N2CCOCC2)N(C)C(=O)[C@H](C2CCCC2)N(C)C(=O)C2(CCCC2)NC(=O)[C@@H]2CC(F)(F)CCN2C(=O)[C@H](CCc2ccc(C(F)(F)F)c(Cl)c2)NC(=O)CN(C)C(=O)[C@@H]1Cc1ccc(C(F)(F)F)cc1 [PP0264] ([NMeL]I[Sar][Sar][NPrPhe(4-CF3)][Sar][hPhe(3-Cl-4-CF3)][Pip(4,4-F2)][Ac5c][NMeGly(cPent)][NMeD]-Morpholide; lactam N-11) | C (A compound having a KD ratio of 0.1 or more and less than 3 is denoted as C) | B (a compound having 3 or more and less than 10 is denoted as B) |
| CCCN1C(=O)CN(C)C(=O)CN(C)C(=O)[C@H]([C@@H](C)CC)NC(=O)[C@H](CC(C)C)N(C)C(=O)C[C@@H](C(=O)N2CCOCC2)N(C)C(=O)[C@H](C2CCCC2)N(C)C(=O)C2(CCCC2)NC(=O)[C@@H]2COCCN2C(=O)[C@H](CCc2ccc(C(F)(F)F)c(Cl)c2)NC(=O)CN(C)C(=O)[C@@H]1Cc1ccc(C(F)(F)F)cc1 [PP0265] ([NMeL]I[Sar][Sar][NPrPhe(4-CF3)][Sar][hPhe(3-Cl-4-CF3)][Morpholine(3S-CO)][Ac5c][NMeGly(cPent)][NMeD]-Morpholide; lactam N-11) | C (A compound having a KD ratio of 0.1 or more and less than 3 is denoted as C) | B (a compound having 3 or more and less than 10 is denoted as B) |
| CCCN1C(=O)CN(C)C(=O)CN(C)C(=O)[C@H]([C@@H](C)CC)NC(=O)[C@H](CC(C)C)N(C)C(=O)C[C@@H](C(=O)N2CCOCC2)N(C)C(=O)[C@H](C2CCCC2)N(C)C(=O)C2(CCCC2)NC(=O)CN(C)C(=O)[C@H](CCc2ccc(C(F)(F)F)c(Cl)c2)NC(=O)CN(C)C(=O)[C@@H]1Cc1ccc(C(F)(F)F)cc1 [PP0266] ([NMeL]I[Sar][Sar][NPrPhe(4-CF3)][Sar][hPhe(3-Cl-4-CF3)][Sar][Ac5c][NMeGly(cPent)][NMeD]-Morpholide; lactam N-11) | C (A compound having a KD ratio of 0.1 or more and less than 3 is denoted as C) | B (a compound having 3 or more and less than 10 is denoted as B) |
| CCCN1CC(=O)NC2(CCCC2)C(=O)N(C)[C@@H](C2CCCC2)C(=O)N(C)[C@H](C(=O)N2CCOCC2)CC(=O)N(C)[C@@H](CC(C)C)C(=O)N[C@@H]([C@@H](C)CC)C(=O)N(C)CC(=O)N(C)CC(=O)N(CCC)[C@@H](Cc2ccc(C(F)(F)F)cc2)C(=O)N(C)CC(=O)N[C@@H](CCc2ccc(C(F)(F)F)c(Cl)c2)C1=O [PP0267] ([NMeL]I[Sar][Sar][NPrPhe(4-CF3)][Sar][hPhe(3-Cl-4-CF3)][NPrGly][Ac5c][NMeGly(cPent)][NMeD]-Morpholide; lactam N-11) | B (a compound having 3 or more and less than 10 is denoted as B) | B (a compound having 3 or more and less than 10 is denoted as B) |
